Reference: publication PMC9856672, “SGC-CAMKK2-1: A Chemical Probe for CAMKK2” (Cells, 2023)

Tests used:
LIMK2 = biological target: T1, LIMK2 (Homo sapiens, UniProt P53671); test: KINOMEscan at 1 μM, LIMK2; type: binding; details: 1000 nM, read-out: Percent Control
T1 construct: purchased Eurofins DiscoverX KINOMEscan
Source text: (§1) Supplement cells-12-00287-s001.zip/File S2. KinomeScan data for the CAMKK2 probe and negative control.xlsx, sheet "SGC-CAMKK2-1N" | column: Percent Control

TGFBR1 = biological target: T2, TGFBR1 (Homo sapiens, UniProt P36897); test: KINOMEscan at 1 μM, TGFBR1; type: binding; details: 1000 nM, read-out: Percent Control
T2 construct: purchased Eurofins DiscoverX KINOMEscan
T2 sequence (P36897 34-503): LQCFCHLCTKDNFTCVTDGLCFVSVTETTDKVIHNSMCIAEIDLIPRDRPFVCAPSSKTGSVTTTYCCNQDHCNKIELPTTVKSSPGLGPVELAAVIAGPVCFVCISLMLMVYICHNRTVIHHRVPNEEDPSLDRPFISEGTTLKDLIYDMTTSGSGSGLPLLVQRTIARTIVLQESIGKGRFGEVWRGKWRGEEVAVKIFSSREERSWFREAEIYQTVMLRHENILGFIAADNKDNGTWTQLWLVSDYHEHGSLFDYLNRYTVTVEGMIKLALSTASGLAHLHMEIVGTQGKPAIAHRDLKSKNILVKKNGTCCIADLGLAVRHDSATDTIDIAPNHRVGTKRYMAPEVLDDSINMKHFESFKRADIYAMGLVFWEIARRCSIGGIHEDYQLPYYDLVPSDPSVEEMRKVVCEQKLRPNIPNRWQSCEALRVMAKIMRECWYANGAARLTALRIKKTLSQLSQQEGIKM
Source text: as §1

SBK1 = biological target: T3, SBK1 (Homo sapiens, UniProt Q52WX2); test: KINOMEscan at 1 μM, SBK1; type: binding; details: 1000 nM, read-out: Percent Control
T3 construct: purchased Eurofins DiscoverX KINOMEscan
Source text: as §1

p38-gamma = biological target: T4, p38-gamma (Homo sapiens, UniProt P53778); test: KINOMEscan binding assay at 1 μM, p38-gamma; details: Compound Concentration 1000 nM; read-out: Percent Control
T4 construct: purchased Eurofins DiscoverX KINOMEscan
T4 sequence (P53778 whole entry): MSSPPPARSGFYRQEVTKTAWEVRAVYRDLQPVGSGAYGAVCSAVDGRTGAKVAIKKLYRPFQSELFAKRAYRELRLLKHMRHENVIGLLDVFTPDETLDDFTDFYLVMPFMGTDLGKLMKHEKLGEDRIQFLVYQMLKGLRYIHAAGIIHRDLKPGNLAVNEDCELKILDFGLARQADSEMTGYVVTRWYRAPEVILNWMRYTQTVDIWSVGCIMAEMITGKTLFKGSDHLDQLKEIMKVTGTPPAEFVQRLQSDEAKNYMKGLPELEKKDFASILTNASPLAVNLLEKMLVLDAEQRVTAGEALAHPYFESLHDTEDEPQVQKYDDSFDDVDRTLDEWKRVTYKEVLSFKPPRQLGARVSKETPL
Source text: as §1

[1] = biological target: T5, ABL1(Q252H)-nonphosphorylated (Homo sapiens, UniProt P00519, Q252H); test: KINOMEscan at 1 μM, ABL1(Q252H)-nonphosphorylated; type: binding; details: 1000 nM, read-out: Percent Control
T5 construct: purchased Eurofins DiscoverX KINOMEscan
Source text: as §1

CAMK1B = biological target: T6, CAMK1B (Homo sapiens, UniProt Q6P2M8); test: KINOMEscan at 1 μM, CAMK1B; type: binding; details: 1000 nM, read-out: Percent Control
T6 construct: purchased Eurofins DiscoverX KINOMEscan
Source text: as §1

DRAK1 = biological target: T7, DRAK1 (Homo sapiens, UniProt Q9UEE5); test: KINOMEscan at 1 μM, DRAK1; type: binding; details: 1000 nM, read-out: Percent Control
T7 construct: purchased Eurofins DiscoverX KINOMEscan
T7 sequence (Q9UEE5 whole entry): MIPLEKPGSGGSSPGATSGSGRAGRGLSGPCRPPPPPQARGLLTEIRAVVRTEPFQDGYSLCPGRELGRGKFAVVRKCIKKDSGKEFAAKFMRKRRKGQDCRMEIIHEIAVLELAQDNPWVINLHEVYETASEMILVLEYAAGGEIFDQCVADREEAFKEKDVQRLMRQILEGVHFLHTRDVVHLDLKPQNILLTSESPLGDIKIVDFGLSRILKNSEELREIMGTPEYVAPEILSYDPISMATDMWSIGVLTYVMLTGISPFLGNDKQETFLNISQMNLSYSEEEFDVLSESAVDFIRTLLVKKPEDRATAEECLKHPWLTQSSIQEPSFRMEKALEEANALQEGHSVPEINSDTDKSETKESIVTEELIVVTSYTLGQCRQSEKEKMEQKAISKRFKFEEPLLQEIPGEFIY
Source text: as §1

WNK1 = biological target: T8, WNK1 (Homo sapiens, UniProt Q9H4A3); test: KINOMEscan at 1 μM, WNK1; type: binding; details: 1000 nM, read-out: Percent Control
T8 construct: purchased Eurofins DiscoverX KINOMEscan
Source text: as §1

DCAMKL2 = biological target: T9, DCAMKL2 (Homo sapiens, UniProt Q8N568); test: KINOMEscan at 1 μM, DCAMKL2; type: binding; details: 1000 nM, read-out: Percent Control
T9 construct: purchased Eurofins DiscoverX KINOMEscan
T9 sequence (Q8N568 whole entry): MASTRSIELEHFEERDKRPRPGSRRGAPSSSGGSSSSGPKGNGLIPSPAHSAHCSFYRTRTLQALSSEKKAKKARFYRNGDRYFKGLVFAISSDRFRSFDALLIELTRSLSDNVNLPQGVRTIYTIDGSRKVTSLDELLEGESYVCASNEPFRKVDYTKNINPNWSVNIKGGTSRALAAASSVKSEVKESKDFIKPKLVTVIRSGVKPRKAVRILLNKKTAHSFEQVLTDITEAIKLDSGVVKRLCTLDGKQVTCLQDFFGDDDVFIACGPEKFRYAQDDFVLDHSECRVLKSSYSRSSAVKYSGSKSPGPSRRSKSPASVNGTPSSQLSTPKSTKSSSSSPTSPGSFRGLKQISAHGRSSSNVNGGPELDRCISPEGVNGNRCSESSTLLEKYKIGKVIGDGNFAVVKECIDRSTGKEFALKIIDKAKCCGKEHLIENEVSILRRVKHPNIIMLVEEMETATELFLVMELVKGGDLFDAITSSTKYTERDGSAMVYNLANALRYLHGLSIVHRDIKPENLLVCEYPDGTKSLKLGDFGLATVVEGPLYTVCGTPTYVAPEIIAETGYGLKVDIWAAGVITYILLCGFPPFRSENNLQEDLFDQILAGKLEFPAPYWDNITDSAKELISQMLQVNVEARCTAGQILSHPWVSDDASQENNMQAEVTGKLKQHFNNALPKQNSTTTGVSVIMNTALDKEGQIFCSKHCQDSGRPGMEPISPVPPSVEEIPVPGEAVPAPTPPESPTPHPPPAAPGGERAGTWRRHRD
Source text: as §1

PCTK3 = biological target: T10, PCTK3 (Homo sapiens, UniProt Q07002); test: KINOMEscan binding assay at 1 μM, PCTK3; details: Compound Concentration 1000 nM; read-out: Percent Control
T10 construct: purchased Eurofins DiscoverX KINOMEscan
Source text: as §1

SRPK3 = biological target: T11, SRPK3 (Homo sapiens, UniProt Q9UPE1); test: KINOMEscan binding assay at 1 μM, SRPK3; details: Compound Concentration 1000 nM; read-out: Percent Control
T11 construct: purchased Eurofins DiscoverX KINOMEscan
T11 sequence (Q9UPE1 whole entry): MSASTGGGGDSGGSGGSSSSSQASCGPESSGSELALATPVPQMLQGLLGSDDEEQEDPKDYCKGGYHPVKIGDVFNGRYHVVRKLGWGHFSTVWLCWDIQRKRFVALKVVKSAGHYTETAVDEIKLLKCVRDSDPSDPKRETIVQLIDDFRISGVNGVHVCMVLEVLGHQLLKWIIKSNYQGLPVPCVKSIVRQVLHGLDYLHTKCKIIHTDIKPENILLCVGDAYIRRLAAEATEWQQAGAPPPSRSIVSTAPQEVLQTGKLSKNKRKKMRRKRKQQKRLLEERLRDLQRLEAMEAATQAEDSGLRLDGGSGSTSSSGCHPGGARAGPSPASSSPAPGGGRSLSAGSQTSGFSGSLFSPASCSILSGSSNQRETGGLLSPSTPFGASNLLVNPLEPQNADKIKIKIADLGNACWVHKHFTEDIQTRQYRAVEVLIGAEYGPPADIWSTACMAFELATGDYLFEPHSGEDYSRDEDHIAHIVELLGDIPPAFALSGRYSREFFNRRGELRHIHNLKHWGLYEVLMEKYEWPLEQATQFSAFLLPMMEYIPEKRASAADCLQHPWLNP
Source text: as §1

KIT [2] = biological target: T12, KIT (Homo sapiens, UniProt P10721); test: KINOMEscan at 1 μM, KIT; type: binding; details: 1000 nM, read-out: Percent Control
T12 construct: purchased Eurofins DiscoverX KINOMEscan
T12 sequence (P10721 26-976): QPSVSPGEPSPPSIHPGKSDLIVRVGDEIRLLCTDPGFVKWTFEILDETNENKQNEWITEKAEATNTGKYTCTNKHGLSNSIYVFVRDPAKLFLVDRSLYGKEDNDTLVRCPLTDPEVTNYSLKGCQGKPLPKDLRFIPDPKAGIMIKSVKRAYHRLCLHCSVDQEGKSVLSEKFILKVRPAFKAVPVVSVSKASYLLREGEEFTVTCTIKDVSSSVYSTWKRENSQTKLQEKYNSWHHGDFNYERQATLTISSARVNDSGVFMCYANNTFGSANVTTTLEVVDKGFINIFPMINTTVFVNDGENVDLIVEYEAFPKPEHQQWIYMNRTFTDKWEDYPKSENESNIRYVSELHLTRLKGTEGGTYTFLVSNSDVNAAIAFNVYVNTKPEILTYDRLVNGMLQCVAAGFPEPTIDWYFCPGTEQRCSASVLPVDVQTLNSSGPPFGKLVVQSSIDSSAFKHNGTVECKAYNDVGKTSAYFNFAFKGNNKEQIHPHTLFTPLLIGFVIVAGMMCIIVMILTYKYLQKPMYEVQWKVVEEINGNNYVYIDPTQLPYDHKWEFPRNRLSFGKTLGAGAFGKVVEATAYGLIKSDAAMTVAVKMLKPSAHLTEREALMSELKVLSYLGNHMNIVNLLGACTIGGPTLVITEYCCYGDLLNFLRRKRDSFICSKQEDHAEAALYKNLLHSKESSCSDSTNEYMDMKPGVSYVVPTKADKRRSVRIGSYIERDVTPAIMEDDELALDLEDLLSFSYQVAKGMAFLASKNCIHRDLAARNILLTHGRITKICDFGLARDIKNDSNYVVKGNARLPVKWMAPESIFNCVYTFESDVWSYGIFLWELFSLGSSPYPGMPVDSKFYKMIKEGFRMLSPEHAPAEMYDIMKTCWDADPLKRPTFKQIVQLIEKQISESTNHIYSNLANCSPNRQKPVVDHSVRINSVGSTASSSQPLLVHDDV
Source text: as §1

[3] = biological target: T13, ABL1(F317L)-nonphosphorylated (Homo sapiens, UniProt P00519, F317L); test: KINOMEscan at 1 μM, ABL1(F317L)-nonphosphorylated; type: binding; details: 1000 nM, read-out: Percent Control
T13 construct: purchased Eurofins DiscoverX KINOMEscan
Source text: as §1

NEK2 = biological target: T14, NEK2 (Homo sapiens, UniProt P51955); test: KINOMEscan at 1 μM, NEK2; type: binding; details: 1000 nM, read-out: Percent Control
T14 construct: purchased Eurofins DiscoverX KINOMEscan
Source text: as §1

SYK = biological target: T15, SYK (Homo sapiens, UniProt P43405); test: KINOMEscan binding assay at 1 μM, SYK; details: Compound Concentration 1000 nM; read-out: Percent Control
T15 construct: purchased Eurofins DiscoverX KINOMEscan
Source text: as §1

[4] = biological target: T16, ABL1(T315I)-phosphorylated (Homo sapiens, UniProt P00519, T315I); test: KINOMEscan at 1 μM, ABL1(T315I)-phosphorylated; type: binding; details: 1000 nM, read-out: Percent Control
T16 construct: purchased Eurofins DiscoverX KINOMEscan
Source text: as §1

PRKX = biological target: T17, PRKX (Homo sapiens, UniProt P51817); test: KINOMEscan at 1 μM, PRKX; type: binding; details: 1000 nM, read-out: Percent Control
T17 construct: purchased Eurofins DiscoverX KINOMEscan
Source text: as §1

CDK5 = biological target: T18, CDK5 (Homo sapiens, UniProt Q00535); test: KINOMEscan at 1 μM, CDK5; type: binding; details: 1000 nM, read-out: Percent Control
T18 construct: purchased Eurofins DiscoverX KINOMEscan
T18 sequence (Q00535 whole entry): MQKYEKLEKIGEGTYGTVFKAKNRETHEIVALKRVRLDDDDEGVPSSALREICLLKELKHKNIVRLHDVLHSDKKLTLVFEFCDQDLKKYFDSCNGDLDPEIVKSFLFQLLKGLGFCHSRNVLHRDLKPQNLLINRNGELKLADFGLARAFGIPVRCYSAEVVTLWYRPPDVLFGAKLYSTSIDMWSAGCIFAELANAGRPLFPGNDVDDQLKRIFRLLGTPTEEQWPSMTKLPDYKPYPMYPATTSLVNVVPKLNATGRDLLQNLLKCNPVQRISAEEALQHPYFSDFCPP
Source text: as §1

LOK = biological target: T19, LOK (Homo sapiens, UniProt O94804); test: KINOMEscan binding assay at 1 μM, LOK; details: Compound Concentration 1000 nM; read-out: Percent Control
T19 construct: purchased Eurofins DiscoverX KINOMEscan
Source text: as §1

CDK3 = biological target: T20, CDK3 (Homo sapiens, UniProt Q00526); test: KINOMEscan at 1 μM, CDK3; type: binding; details: 1000 nM, read-out: Percent Control
T20 construct: purchased Eurofins DiscoverX KINOMEscan
T20 sequence (Q00526 whole entry): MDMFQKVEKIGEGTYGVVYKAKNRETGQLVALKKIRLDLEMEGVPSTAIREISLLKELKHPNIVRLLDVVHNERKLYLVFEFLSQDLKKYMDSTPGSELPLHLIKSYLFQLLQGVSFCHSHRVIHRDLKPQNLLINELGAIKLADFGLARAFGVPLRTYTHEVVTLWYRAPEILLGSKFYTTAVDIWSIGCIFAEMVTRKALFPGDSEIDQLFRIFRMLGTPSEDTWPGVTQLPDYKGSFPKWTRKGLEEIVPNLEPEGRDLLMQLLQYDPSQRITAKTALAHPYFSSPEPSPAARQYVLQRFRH
Source text: as §1

DLK = biological target: T21, DLK (Homo sapiens, UniProt Q12852); test: KINOMEscan 1 μM, DLK; type: binding; details: 1000 nM; Entrez MAP3K12; read-out: Percent Control
T21 construct: purchased Eurofins DiscoverX KINOMEscan
Source text: (§2) Supplement cells-12-00287-s001.zip/File S2. KinomeScan data for the CAMKK2 probe and negative control.xlsx, sheet "SGC-CAMKK2-1" | column: Percent Control

ARK5 = biological target: T22, ARK5 (Homo sapiens, UniProt O60285); test: KINOMEscan 1 μM, ARK5; type: binding; details: 1000 nM; Entrez NUAK1; read-out: Percent Control
T22 construct: purchased Eurofins DiscoverX KINOMEscan
T22 sequence (O60285 whole entry): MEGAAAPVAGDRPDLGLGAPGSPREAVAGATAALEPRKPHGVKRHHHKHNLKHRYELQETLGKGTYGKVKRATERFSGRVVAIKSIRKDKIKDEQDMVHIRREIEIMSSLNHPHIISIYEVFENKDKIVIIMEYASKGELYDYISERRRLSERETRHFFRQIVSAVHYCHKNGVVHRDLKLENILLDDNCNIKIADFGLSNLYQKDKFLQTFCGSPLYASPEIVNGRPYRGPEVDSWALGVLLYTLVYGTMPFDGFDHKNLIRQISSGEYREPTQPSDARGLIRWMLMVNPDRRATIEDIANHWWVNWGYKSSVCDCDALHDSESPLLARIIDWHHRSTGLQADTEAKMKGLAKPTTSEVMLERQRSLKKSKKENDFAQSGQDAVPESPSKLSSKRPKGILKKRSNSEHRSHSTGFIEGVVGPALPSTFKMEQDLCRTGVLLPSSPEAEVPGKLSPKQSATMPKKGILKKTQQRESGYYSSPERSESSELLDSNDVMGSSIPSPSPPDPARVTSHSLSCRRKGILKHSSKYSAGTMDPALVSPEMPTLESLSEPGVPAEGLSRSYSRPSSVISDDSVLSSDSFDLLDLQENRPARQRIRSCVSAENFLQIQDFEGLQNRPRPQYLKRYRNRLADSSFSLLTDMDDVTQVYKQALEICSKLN
Source text: as §2

HIPK3 = biological target: T23, HIPK3 (Homo sapiens, UniProt Q9H422); test: KINOMEscan 1 μM, HIPK3; type: binding; details: 1000 nM; Entrez HIPK3; read-out: Percent Control
T23 construct: purchased Eurofins DiscoverX KINOMEscan
Source text: as §2

VPS34 = biological target: T24, VPS34 (Homo sapiens, UniProt Q8NEB9); test: DiscoverX KINOMEscan binding assay at 1 μM, VPS34; details: VPS34 (PIK3C3); Compound Concentration 1000 nM; read-out: Percent Control
T24 construct: purchased Eurofins DiscoverX KINOMEscan
Source text: as §2

OSR1 = biological target: T25, OSR1 (Homo sapiens, UniProt O95747); test: KINOMEscan 1 μM, OSR1; type: binding; details: 1000 nM; Entrez OXSR1; read-out: Percent Control
T25 construct: purchased Eurofins DiscoverX KINOMEscan
Source text: as §2

SGK3 = biological target: T26, SGK3 (Homo sapiens, UniProt Q96BR1); test: DiscoverX KINOMEscan binding assay at 1 μM, SGK3; details: Compound Concentration 1000 nM, read-out: Percent Control
T26 construct: purchased Eurofins DiscoverX KINOMEscan
Source text: as §2

RIOK1 = biological target: T27, RIOK1 (Homo sapiens, UniProt Q9BRS2); test: KINOMEscan 1 μM, RIOK1; type: binding; details: 1000 nM; Entrez RIOK1; read-out: Percent Control
T27 construct: purchased Eurofins DiscoverX KINOMEscan
Source text: as §2

PIM1 = biological target: T28, PIM1 (Homo sapiens, UniProt P11309); test: KINOMEscan 1 μM, PIM1; type: binding; details: 1000 nM; Entrez PIM1; read-out: Percent Control
T28 construct: purchased Eurofins DiscoverX KINOMEscan
Source text: as §2

DDR2 = biological target: T29, DDR2 (Homo sapiens, UniProt Q16832); test: KINOMEscan 1 μM, DDR2; type: binding; details: 1000 nM; Entrez DDR2; read-out: Percent Control
T29 construct: purchased Eurofins DiscoverX KINOMEscan
Source text: as §2

[5] = biological target: T30, TYK2(JH2domain-pseudokinase) (Homo sapiens, UniProt P29597); test: DiscoverX KINOMEscan binding assay at 1 μM, TYK2(JH2domain-pseudokinase); details: Compound Concentration 1000 nM, read-out: Percent Control
T30 construct: TYK2(JH2domain-pseudokinase); purchased Eurofins DiscoverX KINOMEscan
Source text: as §2

CHEK2 = biological target: T31, CHEK2 (Homo sapiens, UniProt O96017); test: KINOMEscan 1 μM, CHEK2; type: binding; details: 1000 nM; Entrez CHEK2; read-out: Percent Control
T31 construct: purchased Eurofins DiscoverX KINOMEscan
Source text: as §2

KIT [6] = biological target: T12, KIT; test: KINOMEscan 1 μM, KIT; type: binding; details: 1000 nM; Entrez KIT; read-out: Percent Control
Source text: as §2

AURKA = biological target: T32, AURKA (Homo sapiens, UniProt O14965); test: KINOMEscan 1 μM, AURKA; type: binding; details: 1000 nM; Entrez AURKA; read-out: Percent Control
T32 construct: purchased Eurofins DiscoverX KINOMEscan
Source text: as §2

[7] = biological target: T33, ABL1(T315I)-nonphosphorylated (Homo sapiens, UniProt P00519, T315I); test: KINOMEscan 1 μM, ABL1(T315I)-nonphosphorylated; type: binding; details: 1000 nM; Entrez ABL1; read-out: Percent Control
T33 construct: purchased Eurofins DiscoverX KINOMEscan
Source text: as §2

## O=C(O)c1ccc(-c2coc3ncc(-c4ccccc4)cc23)cc1Cl [SGC-CAMKK2-1N (UNC-YL-83)]
LIMK2
  remaining binding at 1 µM: 92%
TGFBR1
  remaining binding at 1 µM: 80%
SBK1
  remaining binding at 1 µM: 67%
p38-gamma
  remaining binding at 1 µM: 100%
[1]
  remaining binding at 1 µM: 59%
CAMK1B
  remaining binding at 1 µM: 61%
DRAK1
  remaining binding at 1 µM: 93%
WNK1
  remaining binding at 1 µM: 66%
DCAMKL2
  remaining binding at 1 µM: 100%
PCTK3
  remaining binding at 1 µM: 100%
SRPK3
  remaining binding at 1 µM: 100%
KIT [2]
  remaining binding at 1 µM: 89%
[3]
  remaining binding at 1 µM: 100%
NEK2
  remaining binding at 1 µM: 97%
SYK
  remaining binding at 1 µM: 100%
[4]
  remaining binding at 1 µM: 84%
PRKX
  remaining binding at 1 µM: 76%
CDK5
  remaining binding at 1 µM: 100%
LOK
  remaining binding at 1 µM: 100%
CDK3
  remaining binding at 1 µM: 100%

## Cc1cccc(-c2cnc3occ(-c4ccc(C(=O)O)c(C5CCCC5)c4)c3c2)c1 [SGC-CAMKK2-1 (YL-36)]
DLK
  remaining binding at 1 µM: 100%
ARK5
  remaining binding at 1 µM: 100%
HIPK3
  remaining binding at 1 µM: 100%
VPS34
  remaining binding at 1 µM: 100%
OSR1
  remaining binding at 1 µM: 84%
SGK3
  remaining binding at 1 µM: 100%
RIOK1
  remaining binding at 1 µM: 92%
PIM1
  remaining binding at 1 µM: 76%
DDR2
  remaining binding at 1 µM: 100%
[5]
  remaining binding at 1 µM: 100%
CHEK2
  remaining binding at 1 µM: 92%
KIT [6]
  remaining binding at 1 µM: 100%
AURKA
  remaining binding at 1 µM: 100%
[7]
  remaining binding at 1 µM: 100%
